In PubChem BioAssay (NCI):
Several values for one entry are separate records, joined by “and”; a condition that tells them apart may be missing. Identical values can stand only once.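 How tested: cells in 96-well plates exposed to compound for 48 hours at five concentrations. GI50 = concentration required for 50% inhibition of growth. The concentration for full growth arrest is given as TGI.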

Experiments:
Experiment in all cases: DTP human tumour cell line panel, 48 h
MDA-MB-231 breast = tested on: MDA-MB-231 breast
HCC-2998 colon = tested on: HCC-2998 colon
M14 melanoma = tested on: M14 melanoma
DU-145 prostate = tested on: DU-145 prostate
HOP-62 NSCLC = tested on: HOP-62 NSCLC
KM12 colon = tested on: KM12 colon
HL-60(TB) leukemia = tested on: HL-60(TB) leukemia
OVCAR-5 ovarian = tested on: OVCAR-5 ovarian
UACC-257 melanoma = tested on: UACC-257 melanoma
HS 578T breast = tested on: HS 578T breast

Row | Structure (SMILES) | TGI (MDA-MB-231 breast) [µM] | TGI (HCC-2998 colon) [µM] | TGI (M14 melanoma) | TGI (DU-145 prostate) [µM] | TGI (HOP-62 NSCLC) [µM] | TGI (KM12 colon) [µM] | TGI (HL-60(TB) leukemia) [µM] | TGI (OVCAR-5 ovarian) | TGI (UACC-257 melanoma) | TGI (HS 578T breast) [µM] | GI50 (DU-145 prostate) [µM] | GI50 (HOP-62 NSCLC) | GI50 (M14 melanoma) | GI50 (OVCAR-5 ovarian) | GI50 (UACC-257 melanoma)
1 | CCOC(=O)c1nnsc1NN | > 100 | > 100 | > 100 µM | > 100 | > 100 | > 100 | > 100 | > 100 µM | > 100 µM | > 100 |  |  |  |  | 
2 | COC1=C(C)C(=O)c2c(c(COC(N)=O)c3n2CC(OC(C)=O)C3OC(C)=O)C1=O (configuration not stated) | 0.515 | 0.262 | 0.514 µM | 0.265 | 0.563 | 0.939 | 0.202 | 0.652 µM | 0.375 µM | 1.09 |  |  |  |  | 
3 | C[C@H]1SC(c2ccc(Cl)cc2Cl)N(NC(=O)c2ccncc2)C1=O (some centres not stated) | > 100 |  | 69.9 µM | > 100 | 94.3 | > 100 | > 100 | > 100 µM |  | > 100 |  |  |  |  | 
4 | COc1ccc(NC(=S)NC(=O)c2ccc3c(c2)Sc2ccccc2O3)c([N+](=O)[O-])c1 | 62.8 |  | > 100 µM | > 100 | > 100 | > 100 | 82.1 | > 100 µM | > 100 µM | 43.2 |  |  |  |  | 
5 | CC1(C)[C@H]2CC[C@@]13C(=O)N1C(=O)O[C@@H]([C@H]1Cl)C(Cl)(COCc1ccccc1)C(=O)OCCO[C@H]3C2 (some centres not stated) |  | > 100 | > 100 µM |  | > 100 | > 100 | > 100 | > 100 µM | > 100 µM | > 100 |  |  |  |  | 
6 | C[C@]12CC[C@@H]3c4cc(I)c(O)cc4CC[C@H]3[C@@H]1CC[C@@H]2O | 25.3 | 21 | 17.4 µM | 23.8 | 17.3 | 13.2 | > 33.4 | 25.7 µM | 23.5 µM | 8.6 | 6.9 | 4.22 µM |  |  | 
7 | COC(=O)c1cc(C#N)[nH]c1-c1cc(Br)cs1 | 51.7 | > 57.5 | 27.7 µM | 43.1 | 29.9 | > 53.4 | 38.5 | 55.7 µM | 28.9 µM | 45.4 |  |  |  |  | 
8 | C\C(=N/N=C1/C(=C\N(C)C)C(=O)NC(=O)N1C)c1ccc(Cl)cc1 | > 100 | > 100 | > 100 µM | > 100 | > 100 | > 100 |  | > 100 µM | > 100 µM | > 100 |  |  |  |  | 
9 | CN(C)CC1CCC(CN(C)C)C1=O (configuration not stated) | 4.18 | 32.9 | 7.38 µM |  | > 68 | 26.7 |  | 20.3 µM | 17.6 µM | 10.2 |  |  |  |  | 
10 | COc1ccc(N(C(=O)Nc2ccc(Cl)c(Cl)c2)C2c3cccn3C(=O)N2c2ccc(Cl)c(Cl)c2)cc1 (configuration not stated) | > 100 | > 100 | > 100 µM | > 100 |  | > 100 | > 100 | > 100 µM | > 100 µM | > 100 |  |  |  |  | 
11 | O=C1NCN(c2ccccc2)C12CCN(CCCN1CCN(CCOC(c3ccc(F)cc3)c3ccc(F)cc3)CC1)CC2 | 4.43 | 2.93 | 3.48 µM | 3.34 | 3.81 | 6.09 |  | 11.4 µM | 3.44 µM | 4.67 |  |  |  |  | 
12 | COC(=O)/C(C#N)=C(/NCCN)Nc1ccccc1 | > 100 | > 100 | > 100 µM | > 100 | > 100 |  | > 100 | > 100 µM | > 100 µM | > 100 |  |  |  |  | 
13 | COc1cc(NC(C)=O)ccc1C(=O)NN1C(=O)/C(=C/c2ccco2)N=C1c1ccccc1 |  |  | > 50 µM | > 50 | > 50 |  | > 50 | > 50 µM |  | > 50 |  |  |  |  | 
14 | CC(=O)OC1CCC2C3CCc4c(C)ccc(OS(=O)(=O)c5ccccc5)c4C3CCC12C (configuration not stated) | > 100 | > 100 |  | > 100 | > 100 |  | > 100 | > 100 µM | > 100 µM |  |  |  |  |  | 
15 | CCC(C(=O)C(=O)OC)P1(=O)OC(C)(C)CN1C(C)(C)C (configuration not stated) | > 100 | > 100 | > 100 µM | > 100 | > 100 | > 100 |  | > 100 µM | > 100 µM |  |  |  |  |  | 
16 | O=C(C(Cl)=C(N1CCOCC1)N1CCOCC1)C(Cl)Cl | > 100 | > 100 | > 100 µM | > 100 | > 100 | > 100 | > 100 |  | > 100 µM | > 100 |  |  |  |  | 
17 | COC(=O)[C@H](Cc1ccccc1)NC(=O)CCCCCCC(=O)NO | 65.3 | 42.5 | > 100 µM | 38.5 |  | > 100 | > 100 | 43.9 µM | 45.4 µM | > 100 |  |  |  |  | 
18 | C=C1c2nc3ccccc3n2C=C(c2ccc(Cl)cc2)N1c1ccc(OC)cc1 | 53.6 | 28.3 | 21 µM | 61.8 |  | 18.7 | > 100 | 35 µM | 30.5 µM |  |  |  |  |  | 
19 | CCCSc1nc(-c2ccc(OC)cc2)c(C#N)c(=O)n1C1OC(COC(C)=O)C(OC(C)=O)C(OC(C)=O)C1OC(C)=O (configuration not stated) |  |  | > 100 µM and 50.2 µM |  | > 100 | > 100 | > 100 | > 100 µM and 48.8 µM | > 100 µM and 56.6 µM |  |  | > 100 µM and 30.1 µM | > 100 µM and 23.1 µM | > 100 µM and 21.2 µM | > 100 µM and 22.4 µM
20 | CC(=O)OC1C(COC(=O)c2ccccc2)OC(Nc2ncc(-c3ccc(Br)cc3)s2)C(OC(=O)c2ccccc2)C1OC(=O)c1ccccc1 (configuration not stated) | > 100 |  | > 100 µM | > 100 | > 100 |  |  | > 100 µM | > 100 µM | > 100 |  |  |  |  | 
21 | CSc1n[nH]c(N)c1C(=O)Nc1ccccc1 | > 100 | > 100 | > 100 µM | > 100 |  | > 100 | > 100 | > 100 µM | > 100 µM | > 100 |  |  |  |  | 
22 | N#Cc1c(-c2ccccc2)cc(-c2ccc(Cl)cc2)[nH]c1=S | 67.3 | > 100 | > 100 µM | > 100 | > 100 | > 100 | > 100 | > 100 µM |  | > 100 |  |  |  |  | 
23 | O=c1cc(-c2cc(O)c(O)c(-c3c(O)cc4oc(-c5ccc(O)c(O)c5)cc(=O)c4c3O)c2)oc2cc(O)cc(O)c12 | > 25 | > 25 | > 25 µM | > 25 | > 25 |  | > 25 | > 25 µM | > 25 µM | > 25 |  |  |  |  | 
